Measured values from patent US20200393345A1, “HEPARIN-BASED BLOOD SAMPLER WITHOUT PLATELET ACTIVATION” (Radiometer Medical ApS, priority 2017, published 2020).
“Also recorded” adds a separate entry of the source. Where a name gives a salt, the structure may show the parent alone.

What was measured:
Assay type in all cases: cell-based
platelets [1] = test: Manual platelet count (single platelets, platelet aggregates) in heparinized blood with anti-platelet agents, hemocytometer; conditions: two concentration levels of drug, mixed 15 minutes; for Single platelet count compared to LiHep and PicoSAM controls / Formation of platelet aggregates compared to LiHep and PicoSAM references / Number of platelet aggregates compared to EDTA: venous whole blood in PICO70 samplers with heparin; for Single platelet count compared to EDTA reference: venous whole blood in PICO70 samplers with heparin 60 IU/mL (LiHep or PicoSAM)
Procedure: Each experiment was conducted on a separate day with blood from one voluntary donor testing one anti-platelet drug candidate. For each experiment PICO70 syringe samplers (Radiometer Medical ApS) were prepared just before sample drawing. For “LiHep” (Liquid Heparin) conditions, PICO70 samplers were emptied of the gold ball and heparin brick and 15 μl of aqueous liquid balanced heparin comprising heparin lithium (Celsus Laboratories) and heparin sodium (Celsus Laboratories) (final heparin conc. 60 IU/mL blood) and 15 μl of the solvent of the tested drug were added. For “PicoSAM” conditions, unmodified PICO70 samplers (with gold ball and heparin brick) were used and 15 μl of the solvent of the respective tested drug was added. For “LiHep xxx drug” conditions, PICO70 samplers were emptied as described for LiHep and 15 μl of liquid balanced heparin (final heparin conc. 60 IU/mL blood) and 15 μl of the dissolved tested drug were added. For “PicoSAM xxx drug” conditions, unmodified PICO70 samplers (with gold ball and heparin brick) were used and 15 μl of the dissolved tested drug was added. […] 600 μM and 6 mM) and dipyridamole (Sigma, D9766; dissolved in 1:10 or 1:100 DMSO in saline, final conc. 10 and 100 μM). An EDTA tube (BD Vacutainer with spray-coated K2EDTA, 10 ml) and duplicate samples of all conditions of PICO70 syringe samplers were filled by drawing venous blood via a butterfly needle using a sealed VTC (vented tip cap) to fill the otherwise self-aspirating PICO70 samplers with 1.5 mL venous whole blood. Samplers were inverted 8 times immediately after drawing to insure proper anticoagulation of the samples. The blood samples were mixed gently by hand (samplers without gold ball) or on a SAM mixer (Radiometer Medical ApS) for 15 minutes after drawing the sample. Mixed samples were fixed immediately with 10% formalin solution (1:1 dilution of blood in formalin) for at least 10 minutes and further diluted 1:10 in platelet dilution solution to hemolyze red blood cells (RBCs) to assessed manual platelet count using a hemocytometer. […] Single platelet counts were adjusted for dilution with liquid heparin and or dissolved drug solution to calculate single platelet concentrations.

platelets [2] = test: Wet mount phase-contrast images of fixed blood samples, platelet aggregation; conditions: fixed venous blood, 40x phase-contrast; eptifibatide 20 μM added to heparin
Excerpt: Venous blood samples drawn, mixed and fixed with 10% formalin solution, as described before in Example 1 were used to prepare wet mounts on a glass slide and covered with a glass coverslip. Wet mount samples of fixed blood cells were then imaged with a Leica 750 microscope using a 40× phase-contrast air objective.

[3] = system: WBCs (white blood cells) and platelets; test: Wet mount images of stained and hemolyzed blood samples; conditions: for Platelets in stained wet mount images (single, aggregated, satellinism) / WBC aggregates in stained wet mount images: PicoSAM samples, 1 μM tirofiban, 20 μM eptifibatide, 100 nM iloprost
Procedure: Venous blood samples were drawn and mixed as described before in Example 1 and used to prepare stained wet mounts images. Blood samples were mixed with a staining and hemolyzing agent (methylene blue and deoxycholic acid, respectively) and incubated at 47° C. in a water bath for 30 seconds. Stained and hemolyzed blood samples were then prepared in wet mount samples on a glass slide and covered with a glass coverslip. Images of stained samples were then acquired with a Leica 750 microscope using a 40× air objective in bright field mode. An image processing software (FIJI, ImageJ) was used to select regions of interest (ROIs) of representative stained WBCs from the images.

| Compound | Single platelet count compared to LiHep and PicoSAM controls (platelets [1]) | Platelet aggregates in microscopic images (platelets [2]) | Platelets in stained wet mount images (single, aggregated, satellinism) [3] | WBC aggregates in stained wet mount images [3] | Single platelet count compared to EDTA reference (platelets [1]) | Formation of platelet aggregates compared to LiHep and PicoSAM references (platelets [1]) | Number of platelet aggregates compared to EDTA (platelets [1]) | WBC aggregation in the blood sample (leukocyte activation) ([3]; statement in the description) |
| --- | --- | --- | --- | --- | --- | --- | --- | --- |
| OCCN(CCO)c1nc(N2CCCCC2)c2nc(N(CCO)CCO)nc(N3CCCCC3)c2n1 [Dipyridamole, dipyridamole] | slightly higher platelet number | – | – | – | – | – | – | – |
| O=C(O)CN(CCN(CC(=O)O)CC(=O)O)CC(=O)O [EDTA, Ethylenediaminetetraacetic acid] | – | prevents platelet activation and maintains single platelets; also recorded: cannot be seen | same results | same results | – | – | – | – |
| CC#CCC(C)[C@H](O)/C=C/[C@@H]1[C@H]2C/C(=C/CCCC(=O)O)C[C@H]2C[C@H]1O (stereo partly drawn) [Iloprost, iloprost] | – | – | single platelets, not platelet satellinism | not platelet satellinism or WBC aggregates | comparable to standard EDTA anticoagulated blood | reduced the formation of platelet aggregates | no or few aggregates | very low WBC aggregation |
| N=C(N)NCCC[C@H](N)C(=O)O [L-Arginine] | slightly higher platelet count | – | – | – | decreased number of platelets | – | higher number of platelet aggregates | – |
| O=S(=O)([O-])[O-].[Mg+2] [MgSO4] | – | – | – | – | – | reduced the formation of platelet aggregates | – | – |
| Clc1ccccc1CN1CCc2sccc2C1 [Ticlopidine LiHep, ticlopidine hydrochloride] | – | – | – | – | – | slightly reduced number of aggregates | – | – |
| CCCCS(=O)(=O)N[C@@H](Cc1ccc(OCCCCC2CCNCC2)cc1)C(=O)O [Tirofiban, tirofiban hydrochloride monohydrate] | – | – | single platelets but also platelet satellinism | WBC aggregates were also observed | comparable to standard EDTA anticoagulated blood | reduced the formation of platelet aggregates | no or few aggregates | – |
| eptifibatide acetate | – | cannot be observed; also recorded: cannot be seen | single platelets but also platelet satellinism | WBC aggregates were also observed | comparable to standard EDTA anticoagulated blood | reduced the formation of platelet aggregates | no or few aggregates | – |
| heparin | – | allows or even potentiates platelet aggregation; also recorded: showed platelet aggregates | – | – | – | – | – | – |
